Results: ChEMBL document CHEMBL1201862, “PubChem BioAssay data set” (2004)
Blank lines part the entries; values can stand above or below the compound they belong to. The source made the active and inactive calls.

Tests used:
HEK293 [1] = assay: cells; assay type: functional, cell-based; details: Homo sapiens
HEK293 [2] = assay: cells; assay type: functional, cell-based; details: Homo sapiens; remark: listed apart in the source
[3] = molecular target: Protein kinase C theta type (Homo sapiens, UniProt Q04759); assay: Navigating the Kinome. Panel member name: PRKCQ; assay type: functional
[4] = molecular target: Tyrosine-protein kinase JAK2 (Homo sapiens, UniProt O60674); assay type: functional;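 also: JAK2 tested as one member of a kinase panel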
[5] = molecular target: cGMP-dependent protein kinase 1 (Homo sapiens, UniProt Q13976); assay type: functional;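 also: value from a kinome panel screen with PRKG1 as the panel member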
[6] = molecular target: Ribosomal protein S6 kinase beta-1 (Homo sapiens, UniProt P23443); assay type: functional;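 also: measured as one member of a kinome-wide profiling panel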
[7] = molecular target: Calcium/calmodulin-dependent protein kinase type II subunit gamma (Homo sapiens, UniProt Q13555); assay type: functional
[8] = molecular target: Serine/threonine-protein kinase 17A (Homo sapiens, UniProt Q9UEE5); assay type: functional
Activin receptor type-1 = Activin receptor type-1 (Homo sapiens, UniProt Q04771); assay: Navigating the Kinome. Panel member name: ACVR1; assay type: functional
SRSF protein kinase 1 = SRSF protein kinase 1 (Homo sapiens, UniProt Q96SB4); assay type: functional;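 also: measured as one member of a kinome-wide kinase profiling panel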
[9] = molecular target: Serine/threonine-protein kinase pim-1 (Homo sapiens, UniProt P11309); assay type: functional
[10] = molecular target: MAP kinase-activated protein kinase 2 (Homo sapiens, UniProt P49137); assay type: functional;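 also: measured as one member of a kinome-wide kinase panel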
[11] = molecular target: Fibroblast growth factor receptor 1 (Homo sapiens, UniProt P11362); assay type: functional
[12] = molecular target: Casein kinase I isoform alpha (Homo sapiens, UniProt P48729); assay type: functional
[13] = molecular target: Ribosomal protein S6 kinase alpha-5 (Homo sapiens, UniProt O75582); assay type: functional
[14] = molecular target: Tyrosine-protein kinase Lyn (Homo sapiens, UniProt P07948); assay type: functional;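 also: lyn as one member of a kinase panel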
[15] = molecular target: Tyrosine-protein kinase ITK/TSK (Homo sapiens, UniProt Q08881); assay type: functional;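 also: affinity for ITK measured as one member of a broad kinase panel profiling binding across the kinome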
[16] = molecular target: Serine/threonine-protein kinase TAO1 (Homo sapiens, UniProt Q7L7X3); assay type: functional
[17] = molecular target: Proto-oncogene tyrosine-protein kinase ROS (Homo sapiens, UniProt P08922); assay type: functional;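 also: ROS1 tested as one member of a kinome-wide kinase panel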
[18] = molecular target: Tyrosine-protein kinase Blk (Homo sapiens, UniProt P51451); assay type: functional;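 also: obtained as one member of a kinome-wide kinase assay panel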
[19] = molecular target: MAP/microtubule affinity-regulating kinase 3 (Homo sapiens, UniProt P27448); assay type: functional;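 also: MARK3 affinity measured as one member of a kinome panel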
[20] = molecular target: Calcium/calmodulin-dependent protein kinase type II subunit beta (Homo sapiens, UniProt Q13554); assay type: functional
[21] = molecular target: Dual specificity tyrosine-phosphorylation-regulated kinase 4 (Homo sapiens, UniProt Q9NR20); assay type: functional
[22] = molecular target: Protein kinase C iota type (Homo sapiens, UniProt P41743); assay type: functional;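 also: measured within a kinome-wide kinase panel, PRKCI as panel member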
[23] = molecular target: Leucine-rich repeat serine/threonine-protein kinase 2 (Homo sapiens, UniProt Q5S007); assay type: functional;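 also: value from a broad kinome-wide panel profiling study in which LRRK2 was one of the kinases tested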
[24] = molecular target: RAC-alpha serine/threonine-protein kinase (Homo sapiens, UniProt P31749); assay type: functional;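 also: AKT1 affinity measured as one member of a kinome-wide kinase profiling panel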
[25] = molecular target: Vascular endothelial growth factor receptor 3 (Homo sapiens, UniProt P35916); assay type: functional;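 also: value from a kinome-wide profiling panel, with FLT4 as the panel member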
[26] = molecular target: Rho-associated protein kinase 1 (Homo sapiens, UniProt Q13464); assay type: functional;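 also: measured within a broad kinome-wide panel profiling many kinases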
[27] = molecular target: Serine/threonine-protein kinase Nek2 (Homo sapiens, UniProt P51955); assay type: functional
[28] = molecular target: Cyclin-dependent kinase 8 (Homo sapiens, UniProt P49336); assay: Navigating the Kinome. Panel member name: CDK8; assay type: functional
[29] = molecular target: Cyclin-dependent kinase 9 (Homo sapiens, UniProt P50750); assay type: functional;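 also: value from the CDK9 entry of a kinome-spanning kinase panel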
[30] = molecular target: BDNF/NT-3 growth factors receptor (Homo sapiens, UniProt Q16620); assay type: functional;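 also: NTRK2 measured as one member of a broad kinome-wide kinase profiling panel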
[31] = molecular target: Dual specificity protein kinase CLK4 (Homo sapiens, UniProt Q9HAZ1); assay type: functional
[32] = molecular target: Serine/threonine-protein kinase BRSK1 (Homo sapiens, UniProt Q8TDC3); assay type: functional;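 also: measured within a kinome-wide kinase panel, with the target listed as KIAA1811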
Leucine aminopeptidase = molecular target: T1, Leucine aminopeptidase (Plasmodium falciparum 3D7, UniProt Q8IL11); assay: P. falciparum M17LAP inhibitors, primary screen, biochemical, fluorogenic H-Leu-NHMec substrate, 1536-well (AID 1619); assay type: functional
T1 sequence (Q8IL11 whole entry): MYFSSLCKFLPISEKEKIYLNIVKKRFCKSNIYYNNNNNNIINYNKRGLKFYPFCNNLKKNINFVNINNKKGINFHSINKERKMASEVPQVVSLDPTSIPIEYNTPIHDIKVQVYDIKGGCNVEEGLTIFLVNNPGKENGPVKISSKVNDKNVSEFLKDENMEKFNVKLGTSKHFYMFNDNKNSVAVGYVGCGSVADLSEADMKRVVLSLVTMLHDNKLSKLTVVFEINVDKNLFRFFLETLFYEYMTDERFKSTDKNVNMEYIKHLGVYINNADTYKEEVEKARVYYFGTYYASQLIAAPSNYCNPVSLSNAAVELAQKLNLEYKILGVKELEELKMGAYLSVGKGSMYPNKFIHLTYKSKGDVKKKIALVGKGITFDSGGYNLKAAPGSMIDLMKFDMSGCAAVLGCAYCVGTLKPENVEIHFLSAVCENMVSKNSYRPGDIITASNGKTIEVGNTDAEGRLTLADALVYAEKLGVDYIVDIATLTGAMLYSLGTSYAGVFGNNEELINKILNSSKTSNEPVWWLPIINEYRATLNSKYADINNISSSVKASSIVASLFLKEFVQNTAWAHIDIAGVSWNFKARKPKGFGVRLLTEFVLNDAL

[33] = cytotoxicity in HPDE-C7 cells, cell-based, fluorescence, HTS (AID 430); assay type: functional; details: Homo sapiens
[34] = cytotoxicity in KRAS-transformed pancreatic duct cells, primary screen, cell-based, fluorescence, HTS (AID 431); assay type: functional; details: Homo sapiens;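 also: cell line used: HPDE-C7K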
[35] = HeLa 2N DNA content increase, dose response, cell-based, IC50 (AID 1117349); assay type: functional
[36] = half-maximal inhibitory concentration for glucagon-like peptide-1 release, STC-1 cell line, dose-response (AID 1117345); assay type: functional, cell-based

Chain of SRSF protein kinase 1 (Q96SB4 whole entry): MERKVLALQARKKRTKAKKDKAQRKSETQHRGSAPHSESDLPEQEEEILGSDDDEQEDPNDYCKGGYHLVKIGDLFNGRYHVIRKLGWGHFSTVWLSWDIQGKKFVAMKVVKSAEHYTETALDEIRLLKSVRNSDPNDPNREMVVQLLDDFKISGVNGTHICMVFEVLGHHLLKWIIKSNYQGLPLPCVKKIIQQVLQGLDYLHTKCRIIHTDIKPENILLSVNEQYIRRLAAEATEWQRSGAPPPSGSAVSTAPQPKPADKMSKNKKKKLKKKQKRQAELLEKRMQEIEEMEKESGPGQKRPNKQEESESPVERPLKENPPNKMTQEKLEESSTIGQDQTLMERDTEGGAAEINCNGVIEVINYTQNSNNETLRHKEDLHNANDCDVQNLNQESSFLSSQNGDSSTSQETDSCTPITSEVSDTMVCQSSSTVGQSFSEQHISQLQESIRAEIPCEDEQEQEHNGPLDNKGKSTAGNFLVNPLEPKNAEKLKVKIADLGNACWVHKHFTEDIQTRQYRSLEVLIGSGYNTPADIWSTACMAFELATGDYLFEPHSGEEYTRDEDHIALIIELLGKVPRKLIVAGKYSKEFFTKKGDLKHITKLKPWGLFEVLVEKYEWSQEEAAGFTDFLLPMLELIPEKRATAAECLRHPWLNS
Chain of Calcium/calmodulin-dependent protein kinase type II subunit beta (Q13554 whole entry): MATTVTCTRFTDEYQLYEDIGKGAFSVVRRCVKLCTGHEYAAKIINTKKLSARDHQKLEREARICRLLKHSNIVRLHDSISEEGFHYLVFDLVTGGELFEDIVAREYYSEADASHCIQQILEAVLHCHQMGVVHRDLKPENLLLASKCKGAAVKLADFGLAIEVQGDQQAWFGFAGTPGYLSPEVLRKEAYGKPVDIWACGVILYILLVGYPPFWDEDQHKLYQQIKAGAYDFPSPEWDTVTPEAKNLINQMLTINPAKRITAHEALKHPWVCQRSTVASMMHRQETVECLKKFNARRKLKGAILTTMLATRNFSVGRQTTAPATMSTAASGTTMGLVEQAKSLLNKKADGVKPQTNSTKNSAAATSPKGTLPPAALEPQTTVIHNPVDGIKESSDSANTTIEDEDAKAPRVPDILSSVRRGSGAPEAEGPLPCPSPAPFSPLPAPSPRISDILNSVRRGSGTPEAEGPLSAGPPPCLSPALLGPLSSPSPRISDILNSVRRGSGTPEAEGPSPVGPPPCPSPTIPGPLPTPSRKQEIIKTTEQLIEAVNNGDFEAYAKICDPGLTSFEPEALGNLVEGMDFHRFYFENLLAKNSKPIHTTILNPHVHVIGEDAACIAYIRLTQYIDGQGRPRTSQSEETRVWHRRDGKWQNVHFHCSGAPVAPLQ
Chain of Serine/threonine-protein kinase BRSK1 (Q8TDC3 whole entry): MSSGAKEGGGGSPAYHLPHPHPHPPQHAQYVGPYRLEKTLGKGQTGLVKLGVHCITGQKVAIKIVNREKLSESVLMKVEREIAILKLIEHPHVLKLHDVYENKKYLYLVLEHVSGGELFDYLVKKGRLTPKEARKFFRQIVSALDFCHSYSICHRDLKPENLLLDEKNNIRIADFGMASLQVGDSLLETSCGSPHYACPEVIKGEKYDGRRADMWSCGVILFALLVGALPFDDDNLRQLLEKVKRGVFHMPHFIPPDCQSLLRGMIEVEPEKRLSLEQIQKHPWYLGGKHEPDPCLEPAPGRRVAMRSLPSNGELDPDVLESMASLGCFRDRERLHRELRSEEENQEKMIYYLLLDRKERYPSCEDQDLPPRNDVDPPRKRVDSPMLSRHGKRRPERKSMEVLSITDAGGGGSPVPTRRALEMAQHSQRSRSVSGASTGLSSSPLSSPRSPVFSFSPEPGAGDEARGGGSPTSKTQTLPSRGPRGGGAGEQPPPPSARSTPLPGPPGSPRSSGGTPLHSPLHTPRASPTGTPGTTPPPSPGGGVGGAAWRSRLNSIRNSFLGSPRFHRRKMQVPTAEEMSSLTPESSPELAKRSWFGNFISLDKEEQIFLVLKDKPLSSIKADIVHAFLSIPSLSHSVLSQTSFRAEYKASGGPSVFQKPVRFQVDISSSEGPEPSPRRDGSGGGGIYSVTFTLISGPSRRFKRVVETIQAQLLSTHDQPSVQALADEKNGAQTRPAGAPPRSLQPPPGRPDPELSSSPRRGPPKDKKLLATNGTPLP
Chain of Cyclin-dependent kinase 9 (P50750 whole entry): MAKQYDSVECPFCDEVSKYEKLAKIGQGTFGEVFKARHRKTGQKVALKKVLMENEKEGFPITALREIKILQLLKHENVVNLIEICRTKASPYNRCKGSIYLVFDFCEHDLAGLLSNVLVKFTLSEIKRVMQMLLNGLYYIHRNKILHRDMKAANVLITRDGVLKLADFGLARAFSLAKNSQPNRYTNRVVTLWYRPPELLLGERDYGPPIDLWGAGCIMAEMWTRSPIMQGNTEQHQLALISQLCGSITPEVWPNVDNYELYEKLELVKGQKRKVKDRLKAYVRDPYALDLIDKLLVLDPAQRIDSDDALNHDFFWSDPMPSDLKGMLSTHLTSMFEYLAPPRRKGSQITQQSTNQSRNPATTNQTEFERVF
Chain of Fibroblast growth factor receptor 1 (P11362 whole entry, canonical isoform): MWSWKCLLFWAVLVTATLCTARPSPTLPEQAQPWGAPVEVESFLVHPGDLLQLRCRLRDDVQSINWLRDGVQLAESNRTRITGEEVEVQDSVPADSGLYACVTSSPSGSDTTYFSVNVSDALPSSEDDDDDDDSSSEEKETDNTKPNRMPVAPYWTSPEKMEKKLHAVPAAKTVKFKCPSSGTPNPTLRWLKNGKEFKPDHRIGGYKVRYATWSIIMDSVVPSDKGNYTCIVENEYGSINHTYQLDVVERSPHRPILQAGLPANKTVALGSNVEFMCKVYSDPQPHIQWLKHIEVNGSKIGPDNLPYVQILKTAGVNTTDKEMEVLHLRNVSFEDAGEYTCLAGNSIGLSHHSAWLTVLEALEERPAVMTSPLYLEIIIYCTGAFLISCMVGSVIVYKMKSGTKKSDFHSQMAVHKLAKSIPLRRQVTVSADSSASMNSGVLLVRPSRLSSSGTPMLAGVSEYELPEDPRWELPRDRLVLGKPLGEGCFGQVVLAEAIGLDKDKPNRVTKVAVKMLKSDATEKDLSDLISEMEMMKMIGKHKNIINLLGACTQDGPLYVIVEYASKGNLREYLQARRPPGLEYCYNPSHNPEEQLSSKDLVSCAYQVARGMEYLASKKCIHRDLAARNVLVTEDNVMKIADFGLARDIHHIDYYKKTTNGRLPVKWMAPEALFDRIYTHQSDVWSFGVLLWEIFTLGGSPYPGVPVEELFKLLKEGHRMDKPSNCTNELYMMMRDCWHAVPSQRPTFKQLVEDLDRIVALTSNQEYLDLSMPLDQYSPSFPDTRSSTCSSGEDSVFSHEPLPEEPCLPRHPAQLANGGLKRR
Chain of MAP kinase-activated protein kinase 2 (P49137 whole entry): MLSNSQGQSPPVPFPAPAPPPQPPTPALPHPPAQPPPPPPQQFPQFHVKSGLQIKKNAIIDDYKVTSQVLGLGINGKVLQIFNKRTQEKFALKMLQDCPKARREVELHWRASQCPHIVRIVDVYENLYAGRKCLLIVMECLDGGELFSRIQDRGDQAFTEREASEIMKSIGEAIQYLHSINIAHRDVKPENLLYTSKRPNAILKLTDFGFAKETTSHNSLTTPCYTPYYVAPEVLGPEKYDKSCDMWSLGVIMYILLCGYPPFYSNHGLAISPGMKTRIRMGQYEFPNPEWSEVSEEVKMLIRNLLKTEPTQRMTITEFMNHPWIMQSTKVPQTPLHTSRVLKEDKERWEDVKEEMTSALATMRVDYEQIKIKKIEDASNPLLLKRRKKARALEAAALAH
Chain of Vascular endothelial growth factor receptor 3 (P35916 whole entry): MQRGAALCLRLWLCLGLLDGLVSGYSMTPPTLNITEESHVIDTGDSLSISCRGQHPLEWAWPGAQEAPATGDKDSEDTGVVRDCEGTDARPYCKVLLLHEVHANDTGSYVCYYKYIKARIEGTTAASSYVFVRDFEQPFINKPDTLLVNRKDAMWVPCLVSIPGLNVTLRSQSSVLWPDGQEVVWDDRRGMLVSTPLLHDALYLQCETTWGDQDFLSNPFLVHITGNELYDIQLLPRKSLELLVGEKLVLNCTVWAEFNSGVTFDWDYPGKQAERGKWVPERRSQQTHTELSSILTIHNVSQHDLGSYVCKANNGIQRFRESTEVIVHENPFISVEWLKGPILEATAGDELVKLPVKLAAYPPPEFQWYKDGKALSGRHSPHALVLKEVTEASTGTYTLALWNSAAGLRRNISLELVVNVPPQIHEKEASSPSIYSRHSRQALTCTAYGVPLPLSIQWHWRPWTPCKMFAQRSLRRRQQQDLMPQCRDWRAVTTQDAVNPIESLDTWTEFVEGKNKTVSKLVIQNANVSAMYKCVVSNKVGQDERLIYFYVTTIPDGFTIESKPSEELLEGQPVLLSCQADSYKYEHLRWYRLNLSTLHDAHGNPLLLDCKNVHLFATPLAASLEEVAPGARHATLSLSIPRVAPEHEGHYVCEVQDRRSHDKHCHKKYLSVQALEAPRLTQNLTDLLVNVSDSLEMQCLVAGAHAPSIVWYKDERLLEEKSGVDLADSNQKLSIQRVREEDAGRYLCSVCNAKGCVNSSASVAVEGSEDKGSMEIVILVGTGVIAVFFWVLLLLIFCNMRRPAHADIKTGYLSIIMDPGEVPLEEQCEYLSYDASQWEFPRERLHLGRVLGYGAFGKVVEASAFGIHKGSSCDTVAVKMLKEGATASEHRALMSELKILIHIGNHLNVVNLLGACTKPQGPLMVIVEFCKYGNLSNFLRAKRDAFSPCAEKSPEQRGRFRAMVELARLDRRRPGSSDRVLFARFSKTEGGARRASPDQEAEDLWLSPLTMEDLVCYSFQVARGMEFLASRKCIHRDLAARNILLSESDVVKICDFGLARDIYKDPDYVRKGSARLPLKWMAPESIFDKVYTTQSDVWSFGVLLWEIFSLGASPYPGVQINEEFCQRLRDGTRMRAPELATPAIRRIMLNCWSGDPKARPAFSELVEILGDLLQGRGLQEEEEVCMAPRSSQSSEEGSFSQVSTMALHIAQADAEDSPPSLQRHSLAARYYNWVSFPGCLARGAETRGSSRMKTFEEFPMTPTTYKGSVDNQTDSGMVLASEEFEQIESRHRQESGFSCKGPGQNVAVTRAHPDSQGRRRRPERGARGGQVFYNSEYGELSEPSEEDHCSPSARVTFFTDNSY

Compound: O=C1C=C(N2CCOCC2)c2ccccc2C1=O
IC50 (HEK293 [1]): 9.46 µM (active)
IC50 (HEK293 [2]): > 20 µM (inactive)

Ki [3]: > 2.51 µM (inactive)
Ki [4]: > 2 µM (inactive)
Ki [5]: > 2 µM (inactive)
Ki [6]: > 6.31 µM (inactive)
Ki [7]: 5.01 µM (active)
Ki [8]: 0.501 µM (active)
Ki (Activin receptor type-1): > 3.98 µM (inactive)
Ki (SRSF protein kinase 1): > 7.94 µM (inactive)
Ki [9]: > 5.01 µM (inactive)
Ki [10]: > 7.94 µM (inactive)
Ki [11]: > 3.98 µM (inactive)
Ki [12]: > 5.01 µM (inactive)
Ki [13]: > 2 µM (inactive)
Ki [14]: > 1.58 µM (inactive)
Ki [15]: > 1.58 µM (inactive)
Ki [16]: > 7.94 µM (inactive)
Ki [17]: > 2 µM (inactive)
Ki [18]: > 1.58 µM (inactive)
Ki [19]: > 6.31 µM (inactive)
Ki [20]: > 7.94 µM (inactive)
Ki [21]: > 7.94 µM (inactive)
Ki [22]: > 5.01 µM (inactive)
Ki [23]: > 2.51 µM (inactive)
Ki [24]: > 7.94 µM (inactive)
Ki [25]: > 6.31 µM (inactive)
Ki [26]: > 7.94 µM (inactive)
Ki [27]: > 10 µM (inactive)
Ki [28]: > 3.98 µM (inactive)
Ki [29]: > 1.58 µM (inactive)
Ki [30]: > 3.98 µM (inactive)
Ki [31]: 2.51 µM (active)
Ki [32]: > 7.94 µM (inactive)
Compound: N#Cc1ccc2[nH]c(O)c(-c3ccc(CN4CCOCC4)cn3)c2c1 [AZD-1080]

Compound: CCc1oc2ccccc2c1C(=O)c1cc(Br)c(O)c(Br)c1 [BENZBROMARONE]
IC50 (Leucine aminopeptidase): 81.9 µM (active)
EC50 [33]: 5.71 µM (active)
EC50 [34]: 5.29 µM (active)
IC50 [35]: > 10 µM (inactive)
IC50 [36]: > 40 µM (inactive)
